The source of these data is patent US3956492A, “Pharmaceutical compositions containing a 3-(amino-methylene)-5-phenyl-1,4-benzodiazepin-2-one and method of use” (Boehringer Ingelheim GmbH, priority 1972, dated 1976).

The term ED50 denotes the dose at which the effect has come halfway, by size or by number of responders.

Like-named read-outs stand apart in the source and are kept apart here.

Assay type in all cases: in vivo
One data set deals with female NMRI-mice. In words: Muscle-relaxing and sedative activity by the method of Young and Lewis (holding ability in slowly rotating inclined wire-mesh cylinders). The note with it: Mus musculus, po, 50% of animals fall out of cylinders. The procedure:
The muscle-relaxing and sedative activities were tested by the method of Young and Lewis [Science 105, 368 (1947)]on female NMRI-mice of our own breed with a body weight between 20 and 26 gm by means of slowly turning wire-mesh cylinders, inclined at 30° from the vertical (length : 43 cm; diameter : 22 cm; mesh-size of the wire netting : 0.6 cm). After peroral administration of the test compound in the form of a 1% suspension in tylose to groups of 10 mice/dose their holding ability in the slowly rotating cylinders was tested (2 rotations/minute) against a control group. The median effective dose (ED50) was graphically determined which caused 50% of the animals to fall out of the cylinders at various time intervals after administration.

The subject of the next data set is male NMRI-mice. In words: Anticonvulsive activity, protective effect against the maximum electro-shock-spasm. Particulars: Mus musculus, po, p.o., 50% protected against tonic extensor component. The procedure: The anticonvulsive activity was tested in terms of the protective effect against the maximum electro-shock-spasm in male NMRI-mice of our own breed with a body weight between 20 and 26 gm analogous to Swinyard, Brown and Goodman [J. Pharmacol. exp. Therap. 106, 319 (1952)]. The animals were exposed to an alternating current of 50 cycles and 50 milliamperes (duration of stimulation 0.2 seconds), where the occurrence of the tonic extensor spasm was valued as positive. After peroral administration of the test compound in the form of a 1% suspension in tylose, the dose (ED50) was graphically determined which protected 50% of the animals against the tonic extensor component of the back extremities after various time intervals.

Another data set concerns mice. In words: Effect on spontaneous motility (sedative activity). The note with it: Mus musculus, po, motility decreased by 50% vs control animals. The source says:
The sedative activity was further determined on mice in terms of the decreasing effect upon the spontaneous motility. The motility of 8 mice per dose of test compound was compared to the motility of 8 control animals; each group was placed into separate motility-measuring cages (diameter : 25 cm), with 10 photoelectric cells in the floor and a light source above the cage. After peroral administration of the test compound the dose was graphically determined which decreased the motility by 50%, compared to the control animals, at various time intervals after administration.

The next data set relates to adult laboratory mice. In words: Standard acute toxicity tests. Particulars: group of 10 adult laboratory mice. Here is the method:
It should be added that the compounds of the formula I are virtually non-toxic. For instance, by standard acute toxicity tests were determined that even massive doses of 6400 mgm/kg p.o. of compound A or 3200 mgm/kg p.o. of compounds B or C produced no deaths in a group of 10 adult laboratory mice within 14 days.

Setting [1] is: after 30-60 min., read-out: ED50 after 30-60 min.
Where [2] appears, read: after 90-120 min., read-out: ED50 after 90-120 min.
Setting [3] is: after 210-240 min., read-out: ED50 after 210-240 min.
The mark [4] stands for this setting: after 270-300 min., read-out: ED50 after 270-300 min.
Where [5] appears, read: 0.5 h, after 30 min., read-out: ED50 after 30 min.
Setting [6] is: 2.5 h, after 150 min., read-out: ED50 after 150 min.
Where [7] appears, read: 5 h, after 300 min., read-out: ED50 after 300 min.
[8] abbreviates: after 90-95 min., read-out: ED50 after 90-95 min.
Where [9] appears, read: after 150-155 min., read-out: ED50 after 150-155 min.

For `CN1C(=O)C(=CN2CCOCC2)N=C(c2ccccc2Cl)c2cc(Br)ccc21` [D, 7-bromo-5-(2'-chloro-phenyl)-1,3-dihydro-1-methyl-3-(morpholino-methylene)-2H-1,4-benzodiazepin-2-one], the ED50 was 33 mg/kg in the data set on female NMRI-mice (setting [1]); 26 mg/kg in the data set with female NMRI-mice (setting [2]); 16 mg/kg with female NMRI-mice (setting [3]); 13 mg/kg in the data set on female NMRI-mice (setting [4]); 200 mg/kg in the data set with male NMRI-mice (setting [5]); 31 mg/kg in the data set on male NMRI-mice (setting [6]). For the same compound, the ED50 in the data set on male NMRI-mice (setting [7]) stood at 34 mg/kg; in the data set with mice (setting [8]) it was 4.4 mg/kg; with mice (setting [9]), 5.2 mg/kg.

Regarding `CN1C(=O)C(=CN)N=C(c2ccccc2Cl)c2cc(I)ccc21` [H, 3-(amino-methylene)-5-(2'-chloro-phenyl)-1,3-dihydro-7-iodo-1-methyl-2H-1,4-benzodiazepin-2-one], the ED50 with female NMRI-mice (setting [1]) was 2.6 mg/kg; in the data set on female NMRI-mice (setting [2]) it was 1.5 mg/kg; in the data set with female NMRI-mice (setting [3]), 2.7 mg/kg; in the data set with female NMRI-mice (setting [4]), 1.6 mg/kg; in the data set with male NMRI-mice (setting [5]), 38 mg/kg; in the data set with male NMRI-mice (setting [6]) it was 30 mg/kg. In addition, the 50% effective dose (ED50) in the data set with male NMRI-mice (setting [7]) turned out to be 16 mg/kg.

Take `NC=C1N=C(c2ccccc2Cl)c2cc(Br)ccc2NC1=O` [F, 3-(amino-methylene)-7-bromo-5-(2'-chloro-phenyl)-1,3-dihydro-2H-1,4-benzodiazepin-2-one]: the ED50 was 0.5 mg/kg with female NMRI-mice (setting [1]); 0.7 mg/kg in the data set with female NMRI-mice (setting [2]); 0.7 mg/kg in the data set with female NMRI-mice (setting [3]); 1.9 mg/kg in the data set with female NMRI-mice (setting [4]); 70 mg/kg in the data set with male NMRI-mice (setting [5]); 14.5 mg/kg with male NMRI-mice (setting [6]). Also, the ED50 was 16 mg/kg in the data set with male NMRI-mice (setting [7]), 8.15 mg/kg in the data set on mice (setting [8]) and 3.76 mg/kg in the data set on mice (setting [9]).

In the case of `CN1C(=O)C(=CN)N=C(c2ccccc2Cl)c2cc(Br)ccc21` [Compound E, 3-(amino-methylene)-7-bromo-5-(2'-chloro-phenyl)-1,3-dihydro-1-methyl-2H-1,4-benzodiazepin-2-one], the 50% effective dose (ED50) in the data set with female NMRI-mice (setting [1]) is 7 mg/kg; in the data set on female NMRI-mice (setting [2]), 7 mg/kg; with female NMRI-mice (setting [3]), 5 mg/kg; with female NMRI-mice (setting [4]), 6 mg/kg; in the data set with male NMRI-mice (setting [5]) it was 18 mg/kg; in the data set on male NMRI-mice (setting [6]) it was 17 mg/kg. Further, the ED50 with male NMRI-mice (setting [7]) stood at 26 mg/kg.

Turning to `CCNC=C1N=C(c2ccccc2Cl)c2cc(Cl)ccc2N(C)C1=O` [C, 3-(ethylamino-methylene)-7-chloro-5-(2'-chloro-phenyl)-1,3-dihydro-1-methyl-2H-1,4-benzodiazepin-2-one], the ED50 with female NMRI-mice (setting [1]) was found to be 2 mg/kg; in the data set on female NMRI-mice (setting [2]) it was 3 mg/kg; with female NMRI-mice (setting [3]) it was 11 mg/kg; with female NMRI-mice (setting [4]), 3 mg/kg; in the data set with male NMRI-mice (setting [5]) it was 200 mg/kg; in the data set with male NMRI-mice (setting [6]), 28 mg/kg. Besides, the ED50 with male NMRI-mice (setting [7]) was 36 mg/kg. Also, in the data set with adult laboratory mice (3200 mgm/kg p.o.), the “deaths within 14 days” value is listed as “no deaths”.

With `CCNC=C1N=C(c2ccccc2Cl)c2cc(Br)ccc2NC1=O` [G, 3-(ethylamino-methylene)-7-bromo-5-(2'-chloro-phenyl)-1,3-dihydro-2H-1,4-benzodiazepin-2-one], the ED50 in the data set with female NMRI-mice (setting [1]) came to 2.4 mg/kg; with female NMRI-mice (setting [2]), 1.25 mg/kg; in the data set on female NMRI-mice (setting [3]), 2.1 mg/kg; in the data set on female NMRI-mice (setting [4]) it was 2.4 mg/kg; with male NMRI-mice (setting [5]), 37 mg/kg; in the data set with male NMRI-mice (setting [6]) it was 8.8 mg/kg. Besides, the ED50 was found to be 22 mg/kg with male NMRI-mice (setting [7]), 1.56 mg/kg in the data set on mice (setting [8]) and 2.45 mg/kg with mice (setting [9]).

With `NC=C1N=C(c2ccccc2Cl)c2cc(Cl)ccc2NC1=O` [B, 3-(amino-methylene)-7-chloro-5-(2'-chloro-phenyl)-1,3-dihydro-2H-1,4-benzodiazepin-2-one], the ED50 in the data set with female NMRI-mice (setting [1]) worked out at 13 mg/kg; in the data set on female NMRI-mice (setting [2]) it was 3 mg/kg; in the data set on female NMRI-mice (setting [3]), 10 mg/kg; with female NMRI-mice (setting [4]) it was 11 mg/kg; in the data set on male NMRI-mice (setting [5]), 85 mg/kg; with male NMRI-mice (setting [6]) it was 28 mg/kg. Besides, the ED50 in the data set on male NMRI-mice (setting [7]) came to 43 mg/kg. The “deaths within 14 days” value with adult laboratory mice (3200 mgm/kg p.o.) is listed as “no deaths”.

As to `CN1C(=O)C(=CN2CCOCC2)N=C(c2ccccc2Cl)c2cc(Cl)ccc21` [A, 7-chloro-5-(2'-chloro-phenyl)-1,3-dihydro-1-methyl-3-(morpholino-methylene)-2H-1,4-benzodiazepin-2-one], the ED50 came to 14 mg/kg in the data set on female NMRI-mice (setting [1]); 5 mg/kg in the data set with female NMRI-mice (setting [2]); 14 mg/kg in the data set on female NMRI-mice (setting [3]); 3 mg/kg with female NMRI-mice (setting [4]); 100 mg/kg with male NMRI-mice (setting [5]); 18 mg/kg in the data set on male NMRI-mice (setting [6]). Moreover, in the data set on male NMRI-mice (setting [7]), the ED50 is 13 mg/kg. Moreover, in the data set with adult laboratory mice (6400 mgm/kg p.o.), the “deaths within 14 days” value is on record as “no deaths”.
